Laboratory results published in patent US6355799B1, “Substituted benzene compounds, process for their preparation, and herbicidal and defoliant compositions containing them” (ISK Americas Incorporated, priority 1997, dated 2002).

Experiments:
Format in all cases: in vivo
[1] = tested on: redroot pigweed (Amaranthus retroflexus, AMARE); experiment: Pre-emerge test, greenhouse herbicide activity screening; settings: pre-emerge, rated 14 days after application, 0 = no damage, 100 = complete death
Procedure, shortened: (§1)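 Compounds in acetone were track-sprayed at 187 l/ha, 15–1000 g ai/ha, onto sandy loam pots. Pre-emerge seeds were sown one day before spraying, with surface watering afterwards. Post-emerge plants were at the 2–3 leaf stage and sprayed with 0.25% v/v non-ionic surfactant. Injury was rated 0–100 at 14 days.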

[2] = tested on: barnyardgrass (Echinochloa crus-galli, ECHCG); experiment: as above; settings: pre-emerge, rated 14 days after application, 0 = no damage, 100 = complete death
Procedure, shortened: as §1

[3] = tested on: common ragweed (Ambrosia artemisizfolia L., AMBEL); experiment: as above; settings: pre-emerge, rated 14 days after application, 0 = no damage, 100 = complete death
Procedure, shortened: as §1

[4] = tested on: green foxtail (Setaria viridis, SETVI); experiment: as above; settings: pre-emerge, rated 14 days after application, 0 = no damage, 100 = complete death
Procedure, shortened: as §1

[5] = tested on: ivyleaf morningglory (Ipomoea hederacea, IPOHE); experiment: as above; settings: pre-emerge, rated 14 days after application, 0 = no damage, 100 = complete death
Procedure, shortened: as §1

[6] = tested on: johnsongrass (Sorghum halepense, SORHA); experiment: as above; settings: pre-emerge, rated 14 days after application, 0 = no damage, 100 = complete death
Procedure, shortened: as §1

[7] = tested on: lambsquarters (Chenopodium album, CHEAL); experiment: as above; settings: pre-emerge, rated 14 days after application, 0 = no damage, 100 = complete death
Procedure, shortened: as §1

[8] = tested on: large crabgrass (Digitaria sanguinalis, DIGSA); experiment: as above; settings: pre-emerge, rated 14 days after application, 0 = no damage, 100 = complete death
Procedure, shortened: as §1

[9] = tested on: sicklepod (Cassia obtusifolia, CASOB); experiment: as above; settings: pre-emerge, rated 14 days after application, 0 = no damage, 100 = complete death
Procedure, shortened: as §1

[10] = tested on: velvetleaf (Abutilon theophrasti, ABUTH); experiment: as above; settings: pre-emerge, rated 14 days after application, 0 = no damage, 100 = complete death
Procedure, shortened: as §1

[11] = tested on: field corn (Zea mays L., var. Dekalb 535, CORN); experiment: Pre-emerge test, crop safety; settings: pre-emerge, rated 14 days after application, 0 = no damage, 100 = complete death
Procedure, shortened: (§2)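 Herbicidal damage is scored 0 (none) to 100 (complete plant death) two weeks after a simulated field spray. Rates span 15–1000 g ai/ha, delivered in acetone at 187 l/ha. For post-emergence treatments, plants have 2–3 leaves and the spray carries 0.25% v/v non-ionic surfactant.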

[12] = tested on: upland rice (Oryza sp., var. Tebonnet, RICE); experiment: Pre-emerge test, crop safety; settings: pre-emerge, rated 14 days after application, 0 = no damage, 100 = complete death
Procedure, shortened: as §2

[13] = tested on: barnyardgrass (Echinochloa crus-galli, ECHCG); experiment: Post-emerge test, greenhouse herbicide activity screening; settings: phytotoxicity rating 0-100 (0 no damage, 100 complete death), 14 days after application
Procedure, shortened: (§3)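 Compounds in acetone were track-sprayed at 15-1000 g ai/ha (187 l/ha) on sandy loam pots: pre-emerge one day after seeding, post-emerge at 2-3 leaf stage with 0.25% v/v non-ionic surfactant. Phytotoxicity was rated 14 days later on a 0 (no damage) to 100 (complete death) scale.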

[14] = tested on: common ragweed (Ambrosia artemisizfolia L., AMBEL); experiment: as above; settings: phytotoxicity rating 0-100 (0 no damage, 100 complete death), 14 days after application
Procedure, shortened: as §3

[15] = tested on: green foxtail (Setaria viridis, SETVI); experiment: as above; settings: phytotoxicity rating 0-100 (0 no damage, 100 complete death), 14 days after application
Procedure, shortened: as §3

[16] = tested on: ivyleaf morningglory (Ipomoea hederacea, IPOHE); experiment: as above; settings: phytotoxicity rating 0-100 (0 no damage, 100 complete death), 14 days after application
Procedure, shortened: as §3

[17] = tested on: lambsquarters (Chenopodium album, CHEAL); experiment: as above; settings: phytotoxicity rating 0-100 (0 no damage, 100 complete death), 14 days after application
Procedure, shortened: as §3

[18] = tested on: large crabgrass (Digitaria sanguinalis, DIGSA); experiment: as above; settings: phytotoxicity rating 0-100 (0 no damage, 100 complete death), 14 days after application
Procedure, shortened: as §3

[19] = tested on: redroot pigweed (Amaranthus retroflexus, AMARE); experiment: as above; settings: phytotoxicity rating 0-100 (0 no damage, 100 complete death), 14 days after application
Procedure, shortened: as §3

[20] = tested on: sicklepod (Cassia obtusifolia, CASOB); experiment: as above; settings: phytotoxicity rating 0-100 (0 no damage, 100 complete death), 14 days after application
Procedure, shortened: as §3

[21] = tested on: velvetleaf (Abutilon theophrasti, ABUTH); experiment: as above; settings: phytotoxicity rating 0-100 (0 no damage, 100 complete death), 14 days after application
Procedure, shortened: as §3

[22] = tested on: field corn (Zea mays L., var. Dekalb 535, CORN); experiment: Post-emerge test, crop safety; settings: phytotoxicity rating 0-100 (0 no damage, 100 complete death), 14 days after application
Procedure, shortened: as §1

[23] = tested on: upland rice (Oryza sp., var. Tebonnet, RICE); experiment: Post-emerge test, crop safety; settings: phytotoxicity rating 0-100 (0 no damage, 100 complete death), 14 days after application
Procedure, shortened: as §1

CCOC(=O)C(C)Nc1cc(Cl)cc(F)c1-n1c(=O)cc(C(F)(F)F)n(C)c1=O (stereo not shown) [Compound 1-54]
Pre-emerge Herbicidal Activity AMARE (phytotoxicity rating, scale 0-100) ([1]; 63 g ai/ha): 100
Pre-emerge Herbicidal Activity AMARE (phytotoxicity rating, scale 0-100) ([1]; 250 g ai/ha): 100
Pre-emerge Herbicidal Activity ECHCG (phytotoxicity rating, scale 0-100) ([2]; 63 g ai/ha): 45
Pre-emerge Herbicidal Activity ECHCG (phytotoxicity rating, scale 0-100) ([2]; 250 g ai/ha): 100
Pre-emerge Herbicidal Activity AMBEL (phytotoxicity rating, scale 0-100) ([3]; 63 g ai/ha): 100
Pre-emerge Herbicidal Activity AMBEL (phytotoxicity rating, scale 0-100) ([3]; 250 g ai/ha): 100
Pre-emerge Herbicidal Activity SETVI (phytotoxicity rating, scale 0-100) ([4]; 63 g ai/ha): 90
Pre-emerge Herbicidal Activity SETVI (phytotoxicity rating, scale 0-100) ([4]; 250 g ai/ha): 100
Pre-emerge Herbicidal Activity IPOHE (phytotoxicity rating, scale 0-100) ([5]; 63 g ai/ha): 100
Pre-emerge Herbicidal Activity IPOHE (phytotoxicity rating, scale 0-100) ([5]; 250 g ai/ha): 100
Pre-emerge Herbicidal Activity SORHA (phytotoxicity rating, scale 0-100) ([6]; 63 g ai/ha): 80
Pre-emerge Herbicidal Activity SORHA (phytotoxicity rating, scale 0-100) ([6]; 250 g ai/ha): 100
Pre-emerge Herbicidal Activity CHEAL (phytotoxicity rating, scale 0-100) ([7]; 63 g ai/ha): 100
Pre-emerge Herbicidal Activity CHEAL (phytotoxicity rating, scale 0-100) ([7]; 250 g ai/ha): 100
Pre-emerge Herbicidal Activity DIGSA (phytotoxicity rating, scale 0-100) ([8]; 63 g ai/ha): 80
Pre-emerge Herbicidal Activity DIGSA (phytotoxicity rating, scale 0-100) ([8]; 250 g ai/ha): 100
Pre-emerge Herbicidal Activity CASOB (phytotoxicity rating, scale 0-100) ([9]; 63 g ai/ha): 30
Pre-emerge Herbicidal Activity CASOB (phytotoxicity rating, scale 0-100) ([9]; 250 g ai/ha): 80
Pre-emerge Herbicidal Activity ABUTH (phytotoxicity rating, scale 0-100) ([10]; 63 g ai/ha): 100
Pre-emerge Herbicidal Activity ABUTH (phytotoxicity rating, scale 0-100) ([10]; 250 g ai/ha): 100
Pre-emerge crop damage CORN (phytotoxicity rating, scale 0-100) ([11]; 63 g ai/ha): 95
Pre-emerge crop damage CORN (phytotoxicity rating, scale 0-100) ([11]; 250 g ai/ha): 99
Pre-emerge crop damage RICE (phytotoxicity rating, scale 0-100) ([12]; 63 g ai/ha): 60
Pre-emerge crop damage RICE (phytotoxicity rating, scale 0-100) ([12]; 250 g ai/ha): 95
Post-emerge Herbicidal Activity ECHCG ([13]; 63 g ai/ha): 20
Post-emerge Herbicidal Activity ECHCG ([13]; 250 g ai/ha): 75
Post-emerge Herbicidal Activity AMBEL ([14]; 63 g ai/ha): 100
Post-emerge Herbicidal Activity AMBEL ([14]; 250 g ai/ha): 100
Post-emerge Herbicidal Activity SETVI ([15]; 63 g ai/ha): 40
Post-emerge Herbicidal Activity SETVI ([15]; 250 g ai/ha): 60
Post-emerge Herbicidal Activity IPOHE ([16]; 63 g ai/ha): 100
Post-emerge Herbicidal Activity IPOHE ([16]; 250 g ai/ha): 100
Post-emerge Herbicidal Activity CHEAL ([17]; 63 g ai/ha): 100
Post-emerge Herbicidal Activity CHEAL ([17]; 250 g ai/ha): 100
Post-emerge Herbicidal Activity DIGSA ([18]; 63 g ai/ha): 40
Post-emerge Herbicidal Activity DIGSA ([18]; 250 g ai/ha): 70
Post-emerge Herbicidal Activity AMARE ([19]; 63 g ai/ha): 100
Post-emerge Herbicidal Activity AMARE ([19]; 250 g ai/ha): 100
Post-emerge Herbicidal Activity CASOB ([20]; 63 g ai/ha): 90
Post-emerge Herbicidal Activity CASOB ([20]; 250 g ai/ha): 100
Post-emerge Herbicidal Activity ABUTH ([21]; 63 g ai/ha): 100
Post-emerge Herbicidal Activity ABUTH ([21]; 250 g ai/ha): 100
Post-emerge Herbicidal Activity CORN (crop damage) ([22]; 63 g ai/ha): 50
Post-emerge Herbicidal Activity CORN (crop damage) ([22]; 250 g ai/ha): 70
Post-emerge Herbicidal Activity RICE (crop damage) ([23]; 63 g ai/ha): 40
Post-emerge Herbicidal Activity RICE (crop damage) ([23]; 250 g ai/ha): 45
